Several values for one entry are separate records, joined by “and”; a condition that tells them apart may be missing. Equal entries are not always repeated. Where two headings read alike, the source gives them in different places.
Experiments:
[1] = tested on: Salmonella typhimurium TA-98; experiment: Antimutagenic activity, Ames method, against mutagenic action of benzpyrene; type: cell-based; details: with B(α)P and S-9 mix
Method: The antimutagenic activity was examined according to the Ames method by using Salmonella typhimurium TA-98 as test bacterium and Benzo(α)pyrene (B(α)P) as (TA-98) mutagen.
To a solution of 5 μg of B(α)P and a proper amount of a compound of this invention in 0.1 ml of DMSO were added 0.5 ml of S-9 mix and 0.1 ml of a TA-98 suspension, and the mixture was subjected to preincubation at 37° C. for 20 minutes.
This preincubated mixture was further added with 2 ml of soft agar, and after sufficient mixing, the mixture was uniformly spread on a gluclose minimum agar medium plate and incubated at 37° C. for 48 hours. Thereafter, the number of the colonies produced by reverse mutation was counted.
The number of the colonies existing in the medium containing neither B(α)P nor the compound of this invention was given as background.
The antimutagenic activity was determined as a mutation inhibition rate from the following formula: [formula]

Enrlich carcinoma = experiment: Antineoplastic activity against Enrlich carcinoma (life prolongation rate); type: in vivo, 5-week-old ICR mice (male); details: for response vs control in vivo at 16 mg/kg: Mus musculus, ip, 1440 h, read-out: Life prolongation rate (T/C %)
Method: Approximately 10^6 cells/0.2 ml of Enrlich carcinoma were inoculated into the abdominal cavity of each of the 5-week-old ICR mice (male) used for the test, and the test compounds were administered intraperitoneally to the mice of the treated group once a day for a period of 7 days, starting from the day after said inoculation. The mice of the control group was administered with a saline solution in the same way. Observation of the animals of both groups was continued for 60 days after the administration, and the life prolongation rate (T/C%, T/C×100) was determined from the average duration (days) of life of the mice of the treated group (T) and that of the mice of the control group (C).

in vivo = details: mouse, ip, LD50, intraperitoneal, once a day, 7 days, mice
[2] = intraperitoneal, once a day, 7 days, mice
[3] = 2.0 mg/kg/day, intraperitoneal, once a day, 7 days
[4] = 4.0 mg/kg/day, intraperitoneal, once a day, 7 days
[5] = 8.0 mg/kg/day, intraperitoneal, once a day, 7 days

## c1ccc(-c2ccccn2)nc1 [Compound 1-41, Selenium oxychloride-2,2'-dipyridyl (1:1) complex]
[1]; 0.5 μg/plate
  Inhibition rate (mutation inhibition rate): 22.6
  Number of colonies: 238
[1]; 1 μg/plate
  Inhibition rate (mutation inhibition rate): 24.2
  Number of colonies: 234
[1]; 5 μg/plate
  Inhibition rate (mutation inhibition rate): 33.6
  Number of colonies: 209
[1]; 10 μg/plate
  Inhibition rate (mutation inhibition rate): 56.2
  Number of colonies: 149
[1]; 50 μg/plate
  Inhibition rate (mutation inhibition rate): 67.5
  Number of colonies: 119
[1]; 100 μg/plate
  Inhibition rate (mutation inhibition rate): 76.2
  Number of colonies: 96
[1]; 500 μg/plate
  Inhibition rate (mutation inhibition rate): 100
  Number of colonies: 16
Enrlich carcinoma; [3]
  Life prolongation rate (T/C %): 230%
Enrlich carcinoma; [4]
  Life prolongation rate (T/C %): 237%
Enrlich carcinoma; [5]
  Life prolongation rate (T/C %): 312%
In vivo
  LD50: 8 to 16 mg/kg

## c1ccncc1 [Compound 2-1, Tetrabromoselenium-pyridine (1:2) complex]
Enrlich carcinoma; mouse, in vivo
  Life prolongation rate (T/C %): 185% and 171% and 222% and 146%
[2]
  LD50: > 16 mg/kg/day × 7

## c1ccc(-c2ccccn2)nc1 [Compound 2-13, Tetrachloroselenium-2,2'-dipyridinyl (1:2) complex]
Enrlich carcinoma; [3]
  Life prolongation rate (T/C %): 152%
Enrlich carcinoma; [4]
  Life prolongation rate (T/C %): 180%
Enrlich carcinoma; [5]
  Life prolongation rate (T/C %): 185%
Enrlich carcinoma; intraperitoneal, (Note 5) administered for 6 days
  response vs control in vivo at 16 mg/kg: 97%
[2]
  LD50: > 16 mg/kg/day × 7

## Cn1cnc2ccccc21 [Compound 1-40, Selenium oxychloride-N-methylbenzimidazole (1:1) complex]
Enrlich carcinoma; [3]
  Life prolongation rate (T/C %): 214%
Enrlich carcinoma; [4]
  Life prolongation rate (T/C %): 230%
Enrlich carcinoma; [5]
  Life prolongation rate (T/C %): 243%
Enrlich carcinoma; intraperitoneal, (Note 2) administered for 2 days
  response vs control in vivo at 16 mg/kg: 123%
[2]
  LD50: 8-16 mg/kg/day × 7

— US4824955A, “Selenium oxy chloride-pyridine or bipyridine complexes” (Nippon Kayaku Kabushiki Kaisha, priority 1985, dated 1989)
